“And” between values parts separate entries of the source, which are not always exact repeats. Equal entries are not always repeated.
Tests used:
β2AR [1] = molecular target: T1, β2AR (Rattus norvegicus, UniProt P10608); conditions: SPOC1 cell membranes
[2] = system: β2AR-luciferase fusion genes; test: Dexamethasone induction of β2AR-luciferase fusion genes in transiently transfected SPOC1 cells; assay type: cell-based, rat; conditions: pβ2AR(−3129/+126) in SPOC1 cells; 0.1 μM dexamethasone, 8 hrs
GRE-pT81LUC fusion genes = test: Dexamethasone induction of putative GREs fused to heterologous thymidine kinase promoter (pT81LUC) in HepG2 cells; assay type: cell-based, human; conditions: 0.1 μM dexamethasone
Description: Plasmid constructs with the luciferase gene under the control of the tk promoter and various putative GREs (see FIG. 8 for sequences) were tested for luciferase activity after transfection into HepG2 cells that were co-transfected with pRShGRα. Transfected cells were incubated for 48 hours prior to addition of 0.1 μM dexamethasone.
To further examine the functionality of the putative glucocorticoid response elements, fragments containing either GRE1, GRE5, or GRE2, GRE3 and GRE4 together were fused to pT81LUC, a luciferase expression plasmid driven by a minimal thymidine kinase promoter.^102 Sequences of the double stranded oligonucleotides containing GRE1, GRE5 and the MMTV GRE are shown in FIG. 10. […] Activity of GRE5-pT81LUC was induced 3.2-fold in the presence of 0.1 μM dexamethasone (FIG. 12), a value that was higher than that observed with any of the β2AR-luciferase fusion genes that included GRE5. Activity of GRE1-pT81LUC was not induced by 0.1 μM dexamethasone (FIG. 12). […] This level of fold-induction was similar to that obtained with MMTVsequence fused to pT81LUC.

[3] = system: β2AR-luciferase fusion genes; test: Dexamethasone induction of β2AR-luciferase fusion genes transiently transfected into HepG2 cells; assay type: cell-based, human; conditions: pβ2AR(−643/+126); 0.1 μM dexamethasone, 8 hrs
Description: HepG2 cells were transiently transfected with pRShGRα, pRSVβ-ga1, and either pβ2AR(−62/+126), pβ2AR(−152/+126), pβ2AR(−643/+126), pβ2AR(−1115/+126), pβ2AR(−2552/+126), pβ2AR(−3129/+126), or N-600 prATLUC. Transfected cells were incubated for 48 hours prior to addition of dexamethasone. Luciferase activity for each construct is expressed relative to that obtained with pβ2AR(−62/+126) in the absence of dexamethasone.
Human HepG2 cells were transiently transfected with pRShGRα, pRSVβ-gal, and either pβ2AR(−3129/+126) or pβ2ARm1 (−3129/+126) as described in the specification. After transfection, the cells were incubated for 8 hours in either the absence or presence of 0.1 μM dexamethasone and cells were harvested. Values are means±S.E. of data from five independent experiments, each performed in triplicate. Asterisks indicate a significant (p<0.05) difference in luciferase activity from untreated and dexamethasone-treated cells as determined by Student's t-test.
In order to determine whether the six putative GREs were functional, six β2AR-luciferase fusion gene deletion mutants were generated. […] To test the effect of dexamethasone on expression of the truncated β2AR-luciferase fusion genes, HepG2 cells transfected with each of the six fusion genes were incubated with either vehicle or 0.1 μM dexamethasone for 8 hrs, and luciferase activity was determined. […]

β2AR [4] = molecular target: T1, β2AR; test: Cyclic AMP accumulation in SPOC1 cells (radioimmunoassay); assay type: cell-based; design: Because SPOC1 cells express a wild-type β2AR; endogenous in cells; host or cells: SPOC1 rat tracheal epithelial cells
Description: Cyclic AMP accumulation was measured by radioimmunoassay. Significant differences were determined by one way ANOVA and Neuman-Keuls test.
In order to determine if the recombinant β2AR expressed in clonal SPOC1 cells is able to functionally couple to adenylyl cyclase, cyclic AMP radioimmunoassays are performed using lysates. Mock-infected and clonal SPOC1 cells are plated at a density of 100,000 cells/well in 12-well dishes (Costar, Cambridge, Mass.). Cells are treated with adrenergic agonists and the phosphodiesterase inhibitor isobutylmethylxanthine (IBMX) for 10 min. Cellular cyclic AMP levels are determined by radioimmunoassay using the Biotrak CAMP Assay System (Amersham Life Science, Arlington Heights, Ill.). […] These experiments are repeated four times with four different SPOC1 cell platings.

mucociliary clearance = conditions: inhaled, humans, controls and asthmatic individuals; cited from earlier work
[5] = molecular target: glucocorticoid receptor alpha (expressed from pRShGRalpha) (Homo sapiens) (UniProt P04150); test: cell_activity; conditions: MMTV-pT81LUC in HepG2, 0.1 uM dexamethasone
[6] = molecular target: glucocorticoid receptor (recombinant human GR) (Homo sapiens, UniProt P04150 P04150:1-777); test: competition; unlabeled competitor did not compete with labeled GRE5 at up to 250-fold excess; conditions: chain copies: 2
Description: To further characterize the ability of GRE₅ to bind glucocorticoid receptor in vitro, we performed electrophoretic mobility shift assays with recombinant human glucocorticoid receptor and serial dilutions of various competitor oligonucleotides was performed.

[7] = molecular target: glucocorticoid receptor alpha (expressed from pRShGRalpha) (Homo sapiens, UniProt P04150 P04150:1-777); test: cell_activity; GRE5-pT81LUC in HepG2, 0.1 uM dexamethasone; conditions: tags: co-transfected expression plasmid pRShGRalpha in HepG2 cells; chain copies: 2; label: 32P
Source text: To further examine the functionality of the putative glucocorticoid response elements, fragments containing either GRE₁, GRE₅, or GRE₂, GRE₃ and GRE₄ together were fused to pT81LUC, a luciferase expression plasmid driven by a minimal thymidine kinase promoter.¹⁰² Sequences of the double stranded oligonucleotides containing GRE₁, GRE₅ and the MMTV GRE are shown in FIG. 10.

T1 sequence (P10608 whole entry, the tested form may be a part): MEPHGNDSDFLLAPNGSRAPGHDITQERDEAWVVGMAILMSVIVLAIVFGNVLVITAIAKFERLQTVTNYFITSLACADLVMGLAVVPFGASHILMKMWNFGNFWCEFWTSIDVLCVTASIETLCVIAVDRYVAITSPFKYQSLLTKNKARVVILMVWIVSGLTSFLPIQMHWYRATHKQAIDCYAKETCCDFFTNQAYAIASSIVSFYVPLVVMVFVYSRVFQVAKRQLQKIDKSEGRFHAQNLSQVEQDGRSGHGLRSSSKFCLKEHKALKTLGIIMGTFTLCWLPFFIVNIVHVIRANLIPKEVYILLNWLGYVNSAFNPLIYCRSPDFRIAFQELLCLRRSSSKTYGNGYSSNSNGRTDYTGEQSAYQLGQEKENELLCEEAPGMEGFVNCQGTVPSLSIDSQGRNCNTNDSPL
Sequence of glucocorticoid receptor (recombinant human GR) (P04150 whole entry, one chain of several): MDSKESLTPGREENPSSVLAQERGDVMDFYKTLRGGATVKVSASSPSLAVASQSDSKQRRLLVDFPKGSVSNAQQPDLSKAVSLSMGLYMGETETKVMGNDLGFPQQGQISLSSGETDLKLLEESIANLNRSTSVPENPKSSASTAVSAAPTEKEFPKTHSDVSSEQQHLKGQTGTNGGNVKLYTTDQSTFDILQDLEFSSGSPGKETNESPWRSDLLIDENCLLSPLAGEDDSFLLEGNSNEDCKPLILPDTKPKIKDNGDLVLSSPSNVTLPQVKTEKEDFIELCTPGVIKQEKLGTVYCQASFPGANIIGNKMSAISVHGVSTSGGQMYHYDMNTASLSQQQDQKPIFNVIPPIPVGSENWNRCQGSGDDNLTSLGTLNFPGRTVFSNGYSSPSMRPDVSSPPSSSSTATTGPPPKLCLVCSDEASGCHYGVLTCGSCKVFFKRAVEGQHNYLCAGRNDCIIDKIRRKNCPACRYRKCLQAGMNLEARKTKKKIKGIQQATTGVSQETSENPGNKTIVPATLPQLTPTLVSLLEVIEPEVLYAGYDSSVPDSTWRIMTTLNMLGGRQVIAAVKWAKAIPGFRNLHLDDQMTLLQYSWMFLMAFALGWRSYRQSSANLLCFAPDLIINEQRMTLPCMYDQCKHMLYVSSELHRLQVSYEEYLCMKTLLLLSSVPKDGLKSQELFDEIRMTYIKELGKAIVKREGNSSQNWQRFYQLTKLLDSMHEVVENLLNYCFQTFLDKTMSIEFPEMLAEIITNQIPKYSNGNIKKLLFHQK
Sequence of glucocorticoid receptor alpha (expressed from pRShGRalpha) (Homo sapiens) (P04150 whole entry): as the sequence (P04150 whole entry, one chain of several) above
Sequence of glucocorticoid receptor alpha (expressed from pRShGRalpha) (P04150 whole entry, the tested form may be a part, one chain of several): as the sequence (P04150 whole entry, one chain of several) above

CC(C)(C)NCC(O)COc1cccc2[nH]c(C#N)c(I)c12 (stereo not shown) [[^125I]CYP, [^125I]cyanoiodopindolol]
binding site concentration (β2AR [1]; [125I]CYP saturation): 60 fmol/mg protein | Kd (β2AR [1]; read-out: [125I]CYP dissociation constant, 37° C., 2 hour, nonspecific binding 0.1 μM (−)-propranolol, representative Scatchard plot): 0.01 nM

C[C@@H]1C[C@H]2[C@@H]3CCC4=CC(=O)C=C[C@]4(C)[C@@]3(F)[C@@H](O)C[C@]2(C)[C@@]1(O)C(=O)CO [dexamethasone]
induction in luciferase activity [2]: ~2 fold | induction of luciferase activity (GRE-pT81LUC fusion genes; GRE5-pT81LUC): 3.2 fold | induction of luciferase activity (GRE-pT81LUC fusion genes; MMTV-pT81LUC fusion gene (positive control)): ~4 fold | induction of luciferase activity [3]: approximately 1.5 fold

CC(C)NCC(O)c1ccc(O)c(O)c1 (stereo not shown) [isoproterenol]
Cyclic AMP production (β2AR [4]): 3.17±0.57 fmol/min/mg protein and 5.95±1.4 fmol/min/mg protein

CCC(NC(C)C)C(O)c1ccc(O)c2[nH]c(=O)ccc12 (stereo not shown) [procaterol]
effect on mucociliary clearance (mucociliary clearance): no effect

CC(C)(C)NCC(O)c1cc(O)cc(O)c1 (stereo not shown) [terbutaline]
effect on mucociliary clearance (mucociliary clearance): increases

MMTV GRE
activity (fold induction) [5]: 4

isobutylmethylxanthine [IBMX]
Cyclic AMP accumulation (β2AR [4]; 100 μM IBMX, 10 min at 37° C., control 0.27±0.08, statistically insignificant increase): 0.40±0.04 fmol/min/mg protein

B1: m1GRE5 (core printed only) (dsDNA)
DNA 1: GGGTGAGCTATTCT
DNA 2: AGAATAGCTCACCC
binding result [6]: no binding

B2: GRE5 (rat beta2AR gene, 35 bp oligonucleotide; core printed only) (dsDNA)
DNA 1: GGGTGAGCTGTTCT
DNA 2: AGAACAGCTCACCC
activity [7]: 3.2 fold induction

Source: US20020028193A1, “Recombinant beta2-adrenergic receptor delivery and use in treating airway and vascular diseases” (priority 2000, published 2002)
